From PubChem BioAssay AID2060621 (Molecular Pharmacology Branch, DTP, NCI, 2025)

Test system: 324938-238-R-J1-PDC complex spheroids viability
Assay: Anticancer human tumor 324938-238-R-J1-PDC patient-derived bladder carcinoma cell line growth inhibition [CLK]
Conditions: for IC50: curve of first compound; for viability, T/C: stronger effect = lower value; active = viability on the fitted dose curve at most 10% of control; inactive = the rest
How it was run: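 Patient-derived tumor cells grown as complex spheroids with HUVEC endothelial cells and mesenchymal stem cells, treated with drug combinations. Concentrations descend in half-log steps from near clinical Cmax, or from 10 microM if Cmax unknown.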

[1] = second compound 0.0316 µM, first compound 0.0316 µM
[2] = second compound 0.0316 µM, first compound 0.1 µM
[3] = second compound 0.1 µM, first compound 0.0316 µM
[4] = second compound 0.1 µM, first compound 0.1 µM
[5] = second compound 0.316 µM, first compound 0.0316 µM
[6] = second compound 0.316 µM, first compound 0.1 µM
[7] = second compound 1 µM, first compound 0.0316 µM
[8] = second compound 1 µM, first compound 0.1 µM
[9] = second compound 3.16 µM, first compound 0.0316 µM
[10] = second compound 3.16 µM, first compound 0.1 µM
[11] = second compound 10 µM, first compound 0.0316 µM
[12] = second compound 10 µM, first compound 0.1 µM
[13] = second compound 0.0316 µM, first compound 0.316 µM
[14] = second compound 0.0316 µM, first compound 1 µM
[15] = second compound 0.0316 µM, first compound 3.16 µM
[16] = second compound 0.0316 µM, first compound 10 µM
[17] = second compound 0.1 µM, first compound 0.316 µM
[18] = second compound 0.1 µM, first compound 1 µM
[19] = second compound 0.1 µM, first compound 3.16 µM
[20] = second compound 0.1 µM, first compound 10 µM
[21] = second compound 0.316 µM, first compound 0.316 µM
[22] = second compound 0.316 µM, first compound 1 µM
[23] = second compound 0.316 µM, first compound 3.16 µM
[24] = second compound 0.316 µM, first compound 10 µM
[25] = second compound 1 µM, first compound 0.316 µM
[26] = second compound 1 µM, first compound 1 µM
[27] = second compound 1 µM, first compound 3.16 µM
[28] = second compound 1 µM, first compound 10 µM
[29] = second compound 3.16 µM, first compound 0.316 µM
[30] = second compound 3.16 µM, first compound 1 µM
[31] = second compound 3.16 µM, first compound 3.16 µM
[32] = second compound 3.16 µM, first compound 10 µM
[33] = second compound 10 µM, first compound 0.316 µM
[34] = second compound 10 µM, first compound 1 µM
[35] = second compound 10 µM, first compound 3.16 µM
[36] = second compound 10 µM, first compound 10 µM
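Also: viability read after seven days of drug exposure.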
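For viability, T/C in this document: 100% = DMSO vehicle control wells.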

Cn1ncnc1[C@H]1c2n[nH]c(=O)c3cc(F)cc(c23)N[C@@H]1c1ccc(F)cc1 + CN1CCN(c2cc(C(=O)Nc3cc4cc(-c5cnn(C)c5)ccc4cn3)ccn2)CC1
0.00866 µM: IC50 (second compound 0.0316 µM)
< 0.000316 µM: IC50 (second compound 0.316 µM) | IC50 (second compound 1 µM) | IC50 (second compound 3.16 µM) | IC50 (second compound 10 µM)
inactive: viability, T/C (second compound 0.0316 µM, first compound 0.000316 µM) 78% | viability, T/C (second compound 0.0316 µM, first compound 0.001 µM) 74% | viability, T/C (second compound 0.0316 µM, first compound 0.00316 µM) 58.2% | viability, T/C (second compound 0.0316 µM, first compound 0.01 µM) 51.9% | viability, T/C [1] 32.5% | viability, T/C [2] 24.4% | viability, T/C (second compound 0.1 µM, first compound 0.000316 µM) 57.5% | viability, T/C (second compound 0.1 µM, first compound 0.001 µM) 54.8% | viability, T/C (second compound 0.1 µM, first compound 0.00316 µM) 43.6% | viability, T/C (second compound 0.1 µM, first compound 0.01 µM) 32.7% | viability, T/C [3] 27% | viability, T/C [4] 19.8% | viability, T/C (second compound 0.316 µM, first compound 0.000316 µM) 23.8% | viability, T/C (second compound 0.316 µM, first compound 0.001 µM) 22.4% | viability, T/C (second compound 0.316 µM, first compound 0.00316 µM) 23.1% | viability, T/C (second compound 0.316 µM, first compound 0.01 µM) 21.2% | viability, T/C [5] 18.5% | viability, T/C [6] 15%
active: viability, T/C (second compound 1 µM, first compound 0.000316 µM) 0.86% | viability, T/C (second compound 1 µM, first compound 0.001 µM) 0.77% | viability, T/C (second compound 1 µM, first compound 0.00316 µM) 0.99% | viability, T/C (second compound 1 µM, first compound 0.01 µM) 0.51% | viability, T/C [7] 0.6% | viability, T/C [8] 1.4% | viability, T/C (second compound 3.16 µM, first compound 0.000316 µM) 0.15% | viability, T/C (second compound 3.16 µM, first compound 0.001 µM) 0.2% | viability, T/C (second compound 3.16 µM, first compound 0.00316 µM) 0.14% | viability, T/C (second compound 3.16 µM, first compound 0.01 µM) 0.09% | viability, T/C [9] 0.12% | viability, T/C [10] 0.14% | viability, T/C (second compound 10 µM, first compound 0.000316 µM) 0.07% | viability, T/C (second compound 10 µM, first compound 0.001 µM) 0.13% | viability, T/C (second compound 10 µM, first compound 0.00316 µM) 0.16% | viability, T/C (second compound 10 µM, first compound 0.01 µM) 0.12% | viability, T/C [11] 0.12% | viability, T/C [12] 0.19%
0.00153 µM: IC50 (second compound 0.1 µM)

Nc1ccn(C2OC(CO)C(O)C2(F)F)c(=O)n1 (stereo unspecified) + CN1CCN(c2cc(C(=O)Nc3cc4cc(-c5cnn(C)c5)ccc4cn3)ccn2)CC1
inactive: viability, T/C [1] 31.4% | viability, T/C [2] 16.4% | viability, T/C [13] 11.3% | viability, T/C [3] 25.3% | viability, T/C [4] 14.2% | viability, T/C [17] 11.5% | viability, T/C [5] 18.9% | viability, T/C [6] 12.7% | viability, T/C [21] 10.2%
< 0.0316 µM: IC50 (second compound 0.0316 µM) | IC50 (second compound 0.1 µM) | IC50 (second compound 0.316 µM) | IC50 (second compound 1 µM) | IC50 (second compound 3.16 µM) | IC50 (second compound 10 µM)
active: viability, T/C [14] 11.3% | viability, T/C [15] 6.96% | viability, T/C [16] 6.17% | viability, T/C [18] 10.8% | viability, T/C [19] 5.43% | viability, T/C [20] 4.89% | viability, T/C [22] 8.86% | viability, T/C [23] 5.88% | viability, T/C [24] 1.97% | viability, T/C [7] 0.83% | viability, T/C [8] 0.6% | viability, T/C [25] 0.57% | viability, T/C [26] 0.45% | viability, T/C [27] 0.37% | viability, T/C [28] 0.22% | viability, T/C [9] 0.13% | viability, T/C [10] 0.16% | viability, T/C [29] 0.15% | viability, T/C [30] 0.12% | viability, T/C [31] 0.14% | viability, T/C [32] 0.19% | viability, T/C [11] 0.11% | viability, T/C [12] 0.12% | viability, T/C [33] 0.19% | viability, T/C [34] 0.12% | viability, T/C [35] 0.17% | viability, T/C [36] 0.16%

O=c1[nH]cc(F)c(=O)[nH]1 + CN1CCN(c2cc(C(=O)Nc3cc4cc(-c5cnn(C)c5)ccc4cn3)ccn2)CC1
0.236 µM: IC50 (second compound 0.0316 µM)
active: viability, T/C [7] 0.71% | viability, T/C [8] 1.08% | viability, T/C [25] 0.67% | viability, T/C [26] 0.81% | viability, T/C [27] 0.77% | viability, T/C [28] 1.58% | viability, T/C [9] 0.09% | viability, T/C [10] 0.15% | viability, T/C [29] 0.1% | viability, T/C [30] 0.11% | viability, T/C [31] 0.08% | viability, T/C [32] 0.19% | viability, T/C [11] 0.07% | viability, T/C [12] 0.12% | viability, T/C [33] 0.13% | viability, T/C [34] 0.09% | viability, T/C [35] 0.1% | viability, T/C [36] 0.19%
0.0942 µM: IC50 (second compound 0.1 µM)
inactive: viability, T/C [1] 74% | viability, T/C [2] 72.8% | viability, T/C [13] 42.1% | viability, T/C [14] 20.4% | viability, T/C [15] 23.9% | viability, T/C [16] 19.1% | viability, T/C [3] 61.5% | viability, T/C [4] 48.2% | viability, T/C [17] 36.4% | viability, T/C [18] 22.6% | viability, T/C [19] 18.2% | viability, T/C [20] 18.1% | viability, T/C [5] 23.1% | viability, T/C [6] 23.9% | viability, T/C [21] 20.6% | viability, T/C [22] 18.9% | viability, T/C [23] 16.8% | viability, T/C [24] 17%
< 0.0316 µM: IC50 (second compound 0.316 µM) | IC50 (second compound 1 µM) | IC50 (second compound 3.16 µM) | IC50 (second compound 10 µM)
